Publication PMC8041284, “Tunable Methacrylamides for Covalent Ligand Directed Release Chemistry” (Journal of the American Chemical Society, 2021)
Where a SMILES comes first, the peptide text is derived from it. [ ]: non-standard residue; d: D form. Nle = CCCC[C@H](N)C(=O)O

What follows are compounds tested against BTK (Homo sapiens, UniProt Q06187) (assay: biochemical). Conditions: read-out: BTK inhibition (%).
Chain of BTK (Q06187 402-655 limits assumed): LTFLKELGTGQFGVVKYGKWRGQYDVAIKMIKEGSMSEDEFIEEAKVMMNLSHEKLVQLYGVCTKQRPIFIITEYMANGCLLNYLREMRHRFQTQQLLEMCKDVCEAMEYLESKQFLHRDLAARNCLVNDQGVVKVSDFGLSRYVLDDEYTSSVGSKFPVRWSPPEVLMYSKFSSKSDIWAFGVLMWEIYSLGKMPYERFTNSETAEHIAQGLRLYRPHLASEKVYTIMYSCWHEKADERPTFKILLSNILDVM
O=C(NCC1CCOCC1)c1cnc(Nc2ccc(Cl)cc2Cl)nc1C(F)(F)F [PCM-0095345] was tested, and the inhibition at 10 µM was -9.3%.

Same assay, conditions: read-out: BTK inhibition (%), 0.75 uM BTK, […] probe 3l, 15 min preincubation
Compound CN1C2=C3N=c4ccccc4=C3CCN2C(=O)c2ccccc21 [PCM-0214954] has an inhibition at 10 µM of 7%. CNS(=O)(=O)CCc1ccc2[nH]cc(C3CCN(C)CC3)c2c1 [PCM-0065268] gave an inhibition at 10 µM of -14.8%. CC1(C)O[C@@H]2[C@@H](CO[C@@]3(COS(N)(=O)=O)OC(C)(C)O[C@@H]23)O1 [PCM-0086260] showed an inhibition at 10 µM of -15.6%. Compound COC[C@H]1C[C@@H](c2ncc(-c3ccc4c(c3)COc3cc5c(ccc6[nH]c([C@@H]7CC[C@H](C)N7C(=O)[C@@H](NC(=O)OC)C(C)C)nc65)cc3-4)[nH]2)N(C(=O)[C@H](NC(=O)OC)c2ccccc2)C1 [PCM-0214920] has an inhibition at 10 µM of 56%. With Cc1cc(-c2ccc(CC(=O)Nc3ccc(-c4cccnc4)cc3)cc2)ccn1 [PCM-0095743] the inhibition at 10 µM was -11.6%. In the case of OCc1ccc(O[C@@H]2O[C@H](CO)[C@@H](O)[C@H](O)[C@H]2O)cc1 [PCM-0094551], the inhibition at 10 µM was 17.9%. For C/C=C(\C)C(=O)O [PCM-0215012], the inhibition at 10 µM was 15.6%. OC[C@H]1O[C@@H](Oc2ccc(O)cc2)[C@H](O)[C@@H](O)[C@@H]1O [PCM-0086306] gave an inhibition at 10 µM of -6.2%. O=c1ccn([C@@H]2O[C@H](COP(=O)(O)O)[C@@H](O)[C@H]2O)c(=O)[nH]1 [PCM-0216290] gave an inhibition at 10 µM of -6.8%. Compound CNC(=O)c1nn(C)c2c1C(C)(C)Cc1cnc(Nc3ccc(N4CCN(C)CC4)cc3)nc1-2 [PCM-0095492] has an inhibition at 10 µM of 44.1%. In the case of O=C1C2=C(CCN(Cc3ccccc3)C2)N2CCN=C2N1Cc1ccc(C(F)(F)F)cc1 [PCM-0215923], the inhibition at 10 µM was 2.3%. C=C(C)[C@@H]1CC[C@]2(C(=O)O)CC[C@]3(C)[C@H](CC[C@@H]4[C@@]5(C)CCC(=O)C(C)(C)[C@@H]5CC[C@]43C)[C@@H]12 [PCM-0215047] showed an inhibition at 10 µM of 66.9%. CCC[S+]([O-])c1ccc2nc(NC(=O)OC)[nH]c2c1 (stereo not shown) [PCM-0095157] gave an inhibition at 10 µM of 20.2%. CC1=C(CC[C@@H](C)CO[C@@H]2O[C@H](CO)[C@@H](O)[C@H](O)[C@H]2O)O[C@H]2C[C@H]3[C@@H]4CC=C5C[C@@H](O[C@@H]6O[C@H](CO)[C@@H](O[C@@H]7O[C@@H](C)[C@H](O)[C@@H](O)[C@H]7O)[C@H](O)[C@H]6O[C@@H]6O[C@@H](C)[C@H](O)[C@@H](O)[C@H]6O)CC[C@]5(C)[C@H]4CC[C@]3(C)[C@@H]12 [PCM-0216365] showed an inhibition at 10 µM of -11.9%. In the case of CC(C)(C)c1cc(NC(=O)Nc2ccc(-c3cn4c(n3)sc3cc(OCCN5CCOCC5)ccc34)cc2)no1 [PCM-0095196], the inhibition at 10 µM was 1.4%. COc1ccc(S(=O)(=O)Nc2nc(-c3cccc([N+](=O)[O-])c3)cs2)cc1OC [PCM-0215595] was tested, and the inhibition at 10 µM was 7.7%. COc1ccc(CC(=O)Nc2nc3c(s2)CCc2ccccc2-3)cc1OC [PCM-0215753] was tested, and the inhibition at 10 µM was 55.9%. In the case of O=c1c(-n2ccnn2)c[nH]n1-c1cc(N2CCOCC2)ncn1 [PCM-0215593], the inhibition at 10 µM was -16.2%. Work on Cn1cncc1[C@@](N)(c1ccc(Cl)cc1)c1ccc2c(c1)c(-c1cccc(Cl)c1)cc(=O)n2C [PCM-0095125] yielded an inhibition at 10 µM of 17.9%. In the case of COc1cc(N2CCN(C)CC2)ccc1Nc1ncc2c(n1)N(C)c1ccccc1C(=O)N2 [PCM-0213372], the inhibition at 10 µM was 11%. COc1c(O)cc2c(c1O)[C@@H]1O[C@H](CO)[C@@H](O)[C@H](O)[C@H]1OC2=O [PCM-0214672] showed an inhibition at 10 µM of 7%. CCN(CC)CCOC(=O)C(c1ccccc1)c1ccccc1 [PCM-0085916] was tested, and the inhibition at 10 µM was -7.8%. With CC(C)(C)C(=O)Nc1ccc2c(c1)C(=O)C(=O)c1ccccc1-2 [PCM-0215348] the inhibition at 10 µM was 10.8%. COc1ccc(CNc2nc(N3CCC[C@H]3CO)ncc2C(=O)NCc2ncccn2)cc1Cl [PCM-0095565] gave an inhibition at 10 µM of -63.8%. In the case of Clc1ccc2c(N3CCN(CCCN4CCN(c5ccnc6cc(Cl)ccc56)CC4)CC3)ccnc2c1 [PCM-0216142], the inhibition at 10 µM was -5.1%. With C/C(=C\CO)CCC[C@H](C)CCC[C@H](C)CCCC(C)C [PCM-0215913] the inhibition at 10 µM was 3.9%. Cn1cc[nH]c1=S [PCM-0086540] gave an inhibition at 10 µM of 14.8%. With N[C@@H](CSCCB(O)O)C(=O)O [PCM-0215605] the inhibition at 10 µM was -5.4%. For CCN(CC)CCOC(=O)c1ccc(N)cc1 [PCM-0065363], the inhibition at 10 µM was 3.9%. OCc1ccc(O)cc1 [PCM-0215041] showed an inhibition at 10 µM of 9.3%. With O=C[C@H](O)[C@@H](O)[C@H](O)[C@H](O)CO[C@H]1O[C@H](CO[C@H]2O[C@H](CO)[C@H](O)[C@H](O)[C@H]2O)[C@H](O)[C@H](O)[C@H]1O [PCM-0216378] the inhibition at 10 µM was 3.9%. In the case of CCCC[C@@H](C=O)NC(=O)[C@H](CC(C)C)NC(=O)[C@H](CC(C)C)NC(C)=O [PCM-0215374] (Ac-Leu-Leu-[Nle]-aldehyde), the inhibition at 10 µM was 18.5%. Cc1nc(-c2cn3c(n2)-c2ccc(-c4cnn(C(C)(C)C(N)=O)c4)cc2OCC3)n(C(C)C)n1 [PCM-0215518] was tested, and the inhibition at 10 µM was 0%. Compound COc1ccc(C(=O)N2CCCC2=O)cc1 [PCM-0064527] has an inhibition at 10 µM of -4.7%. Work on Nc1cc(F)ccc1NC(=O)/C=C/c1cnn(C/C=C/c2ccccc2)c1 [PCM-0095774] yielded an inhibition at 10 µM of 9.3%. Work on O=C(O)CSc1nnc(Br)n1-c1ccc(C2CC2)c2ccccc12 [PCM-0214823] yielded an inhibition at 10 µM of -21.8%. CCOC(=O)C=P(c1ccccc1)(c1ccccc1)c1ccccc1 [PCM-0216183] gave an inhibition at 10 µM of -14.7%. Work on CC(C)(C)NC(=O)c1cncn1C1CCN(c2ccc(-c3nnc(C(F)(F)F)o3)cn2)CC1 [PCM-0215700] yielded an inhibition at 10 µM of -12.4%. Work on C=C1C[C@@]2(O)O[C@@]3(C[C@H]2C(C)C)[C@@H](C)CC[C@@H]13 [PCM-0214683] yielded an inhibition at 10 µM of -1.6%. CN(C)Cc1ccc(-c2nc3cccc4c3n2CCNC4=O)cc1 [PCM-0095220] showed an inhibition at 10 µM of 4.8%. CCOc1cc(N)c(Cl)cc1C(=O)NCC1CN(Cc2ccc(F)cc2)CCO1 (stereo not shown) [PCM-0095041] gave an inhibition at 10 µM of -14%. For O=C(NC1CC1)c1cc(-c2cccs2)on1 [PCM-0215520], the inhibition at 10 µM was -2.3%. With CSCCC(N)C(=O)O (stereo not shown) [PCM-0216617] the inhibition at 10 µM was 17.9%. CCc1cnn2c(NCc3ccc[n+]([O-])c3)cc(N3CCCC[C@H]3CCO)nc12 [PCM-0095529] showed an inhibition at 10 µM of -7.6%. With Nc1ccc(S(=O)(=O)Nc2ccccn2)cc1 [PCM-0086480] the inhibition at 10 µM was -13.6%. For O=C1c2ccccc2-c2n[nH]c3cccc1c23 [PCM-0012406], the inhibition at 10 µM was 18.6%. For C/C(=C\c1csc(C)n1)[C@@H]1C[C@@H]2O[C@]2(C)CCC[C@H](C)[C@H](O)[C@@H](C)C(=O)C(C)(C)[C@@H](O)CC(=O)O1 [PCM-0094998], the inhibition at 10 µM was -9.3%. Cc1cc(/C=C2/SC(=S)NC2=O)c(C)n1-c1cccnc1 [PCM-0215351] was tested, and the inhibition at 10 µM was 10.8%. In the case of C[C@H]1C[C@H]2[C@@H]3CCC4=CC(=O)C=C[C@]4(C)[C@H]3C(=O)C[C@]2(C)[C@@]1(O)C(=O)CO [PCM-0095139], the inhibition at 10 µM was 29%. COc1cc2c(cc1O)C[C@H]1c3c(cc(O)c(OC)c3-2)CCN1C [PCM-0216351] was tested, and the inhibition at 10 µM was 6.9%. C[C@@H]1O[C@@H](OC[C@H]2O[C@@H](Oc3cc(O)c4c(c3)O[C@H](c3ccc(O)cc3)CC4=O)[C@H](O)[C@@H](O)[C@@H]2O)[C@H](O)[C@H](O)[C@H]1O [PCM-0216493] gave an inhibition at 10 µM of 10.8%. For NC(=O)c1ccc[n+]([C@@H]2O[C@H](COP(=O)([O-])OP(=O)(O)OC[C@H]3O[C@@H](n4cnc5c(N)ncnc54)[C@H](O)[C@@H]3O)[C@@H](O)[C@H]2O)c1 [PCM-0090146], the inhibition at 10 µM was -13.6%. With Cc1cc2c(s1)Nc1ccccc1N=C2N1CCN(C)CC1 [PCM-0064824] the inhibition at 10 µM was -8.6%. In the case of Cc1cccc(C)c1NC(=O)C1CCCCN1C (stereo not shown) [PCM-0086182], the inhibition at 10 µM was 3.4%. With Cc1cccc(C(C)c2cnc[nH]2)c1C (stereo not shown) [PCM-0095548] the inhibition at 10 µM was -14.8%. In the case of CCN1CCN(Cc2ccc(Nc3ncc(F)c(-c4cc(F)c5nc(C)n(C(C)C)c5c4)n3)nc2)CC1 [PCM-0095736], the inhibition at 10 µM was -12.4%. Compound Cn1cnc(-c2cc3nccc(Oc4ccc(NC(=S)NC(=O)Cc5ccccc5)cc4F)c3s2)c1 [PCM-0094974] has an inhibition at 10 µM of -6.9%. Compound COC(=O)Nc1ccc(-c2nc(N3CCOCC3)c3cnn(C4CCN(C(=O)OC)CC4)c3n2)cc1 [PCM-0095038] has an inhibition at 10 µM of 18.6%. For COC(=O)c1ccco1 [PCM-0216224], the inhibition at 10 µM was -23.9%. COC1=C(OC)C(=O)C(CCCCCCCCCCO)=C(C)C1=O [PCM-0085939] showed an inhibition at 10 µM of -11%. Cc1ccc(S(=O)(=O)/C=C/C#N)cc1 [PCM-0065564] was tested, and the inhibition at 10 µM was -12.4%. Work on CS(=O)(=O)OCCCCOS(C)(=O)=O [PCM-0085767] yielded an inhibition at 10 µM of -1.4%. For CC1(C)CC[C@]2(NC(=O)C(C)(F)F)CC[C@]3(C)[C@H](C(=O)C=C4[C@@]5(C)C=C(C#N)C(=O)C(C)(C)[C@@H]5CC[C@]43C)[C@@H]2C1 [PCM-0215505], the inhibition at 10 µM was -10%. OC[C@@H](O)[C@@H](O)[C@H](O)[C@H](O)CO [PCM-0094876] showed an inhibition at 10 µM of -17.1%. In the case of Cc1[nH]nc2ccc(-c3cncc(OC[C@@H](N)Cc4ccccc4)c3)cc12 [PCM-0095333], the inhibition at 10 µM was -17.2%. Cc1cc(C(C)Nc2ccccc2)c2nc(N3CCOCC3)cc(=O)n2c1 (stereo not shown) [PCM-0095022] gave an inhibition at 10 µM of 10.3%. Compound C[n+]1cc2c3c(ccc2c2ccc4cc5c(cc4c21)OCO5)OCO3 [PCM-0065605] has an inhibition at 10 µM of 75.7%. In the case of C=CC(=C)C [PCM-0216155], the inhibition at 10 µM was 1.5%. In the case of CCn1c(=O)c2c(nc(/C=C/c3ccc(OC)c(OC)c3)n2C)n(CC)c1=O [PCM-0095373], the inhibition at 10 µM was -25.7%. CC1(C)CC[C@]2(C(=O)O)[C@H](O)C[C@]3(C)C(=CC[C@@H]4[C@@]5(C)CC[C@H](O)[C@@](C)(C=O)[C@@H]5CC[C@]43C)[C@@H]2C1 [PCM-0216608] was tested, and the inhibition at 10 µM was -8.5%. CC(C)OC(=O)C(C)(C)Oc1ccc(C(=O)c2ccc(Cl)cc2)cc1 [PCM-0065053] was tested, and the inhibition at 10 µM was 8.6%. C=CC(=O)Nc1cc2c(Nc3ccc(F)c(Cl)c3)ncnc2cc1OCCCN1CCOCC1 [PCM-0094917] gave an inhibition at 10 µM of 93.6%. In the case of O=c1ccn([C@@H]2O[C@H](CO)[C@@H](O)[C@@H]2O)c(=O)[nH]1 [PCM-0215072], the inhibition at 10 µM was 5.4%. O=c1[nH]c(=O)c2ncn([C@@H]3O[C@H](CO)[C@@H](O)[C@H]3O)c2[nH]1 [PCM-0216292] gave an inhibition at 10 µM of 13.1%. Compound COc1ccc(-c2oc3c(CC=C(C)C)c(O)cc(O)c3c(=O)c2O)cc1 [PCM-0216376] has an inhibition at 10 µM of 3.9%.
